In ChEMBL document CHEMBL3244320, “2-Acetylpyridine thiosemicarbazones. 1. A new class of potential antimalarial agents” (J Med Chem, 1979):
The source made the active and inactive calls. No cut-off for these calls is given here.

Legend:
[1] = system: Plasmodium berghei; test: Antimalarial activity against Plasmodium berghei KBG 173 infected in ICR/HA Swiss mouse at 40 to 640 mg/kg, sc administered 72 hrs post infection; assay type: functional, organism-based
[2] = system: Plasmodium berghei; test: Antimalarial activity against Plasmodium berghei KBG 173 infected in ICR/HA Swiss mouse assessed as increase in mean survival time at 40 mg/kg, sc administered 72 hrs post infection; assay type: functional; conditions: route subcutaneous
[3] = system: Mus musculus; test: Toxicity in ICR/HA Swiss mouse infected with Plasmodium berghei KBG 173 assessed as mortality at 640 mg/kg, sc administered 72 hrs post infection measured for 6 days; assay type: organism-based; parameters: dose 640 mg/kg, route subcutaneous; conditions: in vivo, 144 h
[4] = system: Plasmodium berghei; test: Antimalarial activity against Plasmodium berghei KBG 173 infected in ICR/HA Swiss mouse assessed as curative effect at 160 mg/kg, sc administered 72 hrs post infection; assay type: functional, organism-based; parameters: dose 160 mg/kg
[5] = system: Plasmodium berghei; test: Antimalarial activity against Plasmodium berghei KBG 173 infected in ICR/HA Swiss mouse assessed as increase in mean survival time at 640 mg/kg, sc administered 72 hrs post infection; assay type: functional; conditions: route subcutaneous
[6] = system: Plasmodium berghei; test: Antimalarial activity against Plasmodium berghei KBG 173 infected in ICR/HA Swiss mouse assessed as increase in mean survival time at 160 mg/kg, sc administered 72 hrs post infection; assay type: functional; conditions: route subcutaneous
[7] = system: Plasmodium berghei; test: Antimalarial activity against Plasmodium berghei KBG 173 infected in ICR/HA Swiss mouse assessed as increase in mean survival time at 320 mg/kg, sc administered 72 hrs post infection; assay type: functional; conditions: route subcutaneous
[8] = system: Plasmodium berghei; test: Antimalarial activity against Plasmodium berghei KBG 173 infected in ICR/HA Swiss mouse assessed as increase in mean survival time at 80 mg/kg, sc administered 72 hrs post infection; assay type: functional; conditions: route subcutaneous
[9] = system: Mus musculus; test: Toxicity in ICR/HA Swiss mouse infected with Plasmodium berghei KBG 173 assessed as mortality at 320 mg/kg, sc administered 72 hrs post infection measured for 6 days; assay type: organism-based; parameters: dose 320 mg/kg, route subcutaneous; conditions: in vivo, 144 h
[10] = system: Mus musculus; test: Toxicity in ICR/HA Swiss mouse infected with Plasmodium berghei KBG 173 assessed as mortality at 160 mg/kg, sc administered 72 hrs post infection measured for 6 days; assay type: organism-based; parameters: dose 160 mg/kg, route subcutaneous; conditions: in vivo, 144 h
[11] = system: Mus musculus; test: Toxicity in ICR/HA Swiss mouse infected with Plasmodium berghei KBG 173 assessed as mortality at 40 mg/kg, sc administered 72 hrs post infection measured for 6 days; assay type: organism-based; parameters: dose 40 mg/kg, route subcutaneous; conditions: in vivo, 144 h
[12] = system: Plasmodium berghei; test: Antimalarial activity against Plasmodium berghei KBG 173 infected in ICR/HA Swiss mouse assessed as curative effect at 320 mg/kg, sc administered 72 hrs post infection; assay type: functional, organism-based; parameters: dose 320 mg/kg

Compound | MST [2] [days] | MST [5] [days] | MST [6] [days] | MST [7] [days] | MST [8] [days] | also measured
C/C(=N\NC(=S)Nc1ccccc1)c1ccncc1 | – | – | – | – | – | Activity [1]: inactive
Br.CCN(CC)CCCC(C)NC(=S)N/N=C(\C)c1ccccn1 (centres undefined) | 0.3 | – | – | – | – | Activity [3]: Toxic
C/C(=N\NC(=S)NCc1ccccc1C)c1ccccn1 | 0.1 | 8.9 | 5.9 | 7.7 | 2.5 | Activity [4]: Active
CCN(CC)Cc1cc(NC(=S)N/N=C(\C)c2ccccn2)ccc1O.Cl.O | 2 | – | 8.8 | – | 5.6 | Activity [9]: Toxic
C/C(=N\NC(N)=S)c1ccccn1 | – | – | – | – | – | Activity [10]: Toxic; Activity [11]: Toxic; Activity [3]: Toxic
C/C(=N\NC(=S)Nc1ccccc1F)c1ccccn1 | 0 | – | 6.8 | – | 2.6 | Activity [12]: Active
C/C(=N\NC(=S)NC12CC3CC(CC(C3)C1)C2)c1ccncc1 | – | – | – | – | – | Activity [1]: inactive
C=CCNC(=S)N/N=C(\C)c1ccccn1 | 0.5 | – | 3.1 | 3 | 2.3 | Activity [3]: Toxic
C/C(=N\NC(=S)Nc1ccccn1)c1cccnc1 | – | – | – | – | – | Activity [1]: inactive
C/C(=N\NC(=S)Nc1cccc(C)c1)c1ccccn1 | 0.4 | – | 7.4 | 10.3 | 3 | Activity [12]: Active
C/C(=N\NC(=S)NC1CCCCCCC1)c1ccccn1 | 1.1 | 10.7 | 3.4 | 4.8 | 1.2 | Activity [4]: Active
COc1cccc(NC(=S)N/N=C(\C)c2ccccn2)c1 | 0.3 | 9.6 | 8.1 | 4.3 | 0.4 | –
C/C(=N\NC(=S)Nc1cccc(F)c1)c1ccccn1 | 4.4 | – | 6.6 | – | 5.8 | Activity [12]: Active
C/C(=N\NC(=O)Nc1ccccc1)c1ccccn1 | – | – | – | – | – | Activity [1]: inactive
C/C(=N\NC(=S)NCCc1ccccc1)c1ccccn1 | -0.2 | 8.8 | 2 | 6.6 | 0.6 | –
C/C(=N\NC(=S)NC12CC3CC(CC(C3)C1)C2)c1cccnc1 | – | – | – | – | – | Activity [1]: inactive
CCc1ccccc1NC(=S)N/N=C(\C)c1ccccn1 | 0.3 | 5.1 | 0.7 | 3.1 | 0.3 | –
C/C(=N\NC(=S)Nc1ccc(Cl)cc1)c1ccccn1 | 0.5 | 8.3 | 1.7 | 4.3 | 1.5 | –
C/C(=N\NC(=S)Nc1ccccn1)c1ccncc1 | – | – | – | – | – | Activity [1]: inactive
Br.CCN(CC)CCNC(=S)N/N=C(\C)c1ccccn1 | 0.3 | – | 0.5 | – | – | Activity [3]: Toxic; Activity [9]: Toxic
C/C(=N\NC(=S)NCCO)c1ccccn1 | 0.3 | – | 0.5 | – | – | Activity [3]: Toxic
C/C(=N\NC(=S)Nc1ccccc1)c1cccnc1 | – | – | – | – | – | Activity [1]: inactive
C/C(=N\NC(=S)Nc1c(C)cccc1C)c1ccccn1 | 0.4 | 11.4 | 2 | 5.8 | 0.4 | –
C/C(=N\NC(=S)NCc1ccc(C)cc1C)c1ccccn1 | 0.5 | 8.9 | 3.1 | 6.1 | 0.1 | –
C/C(=N\NC(=S)Nc1ccc(C)cc1)c1ccccn1 | 0.3 | – | 4.5 | – | 2.1 | Activity [12]: Active
COc1cccc(CNC(=S)N/N=C(\C)c2ccccn2)c1 | 0.3 | 5.9 | 0.9 | 4.5 | 0.3 | –
C/C(=N\NC(=S)NC(C)(C)CC(C)(C)C)c1ccccn1 | 1.1 | 8.7 | 0.9 | 2.9 | 1.3 | –
COc1ccc(CNC(=S)N/N=C(\C)c2ccccn2)cc1 | 0.3 | 7.9 | 2.9 | 5.9 | 1.7 | –
C/C(=N\NC(=S)Nc1cccc(Cl)c1)c1ccccn1 | 0.3 | 7.1 | 2.5 | 5.1 | 0.3 | –
Br.C/C(=N\NC(=S)NCC(C)N(C)C)c1ccccn1 (centres undefined) | 0.1 | – | – | – | – | Activity [3]: Toxic
